Results: ChEMBL document CHEMBL5576084, “Development of chromone-thiazolidine-2,4-dione Knoevenagel conjugates as apoptosis inducing agents” (Bioorg Med Chem Lett, 2024)
Calls of active or inactive are those of the source. No cut-off for these calls is given here.

Key:
SK-MEL-28 = experiment: Cytotoxicity against human SK-MEL-28 cells assessed as inhibition of cell growth incubated for 48 hrs by MTT assay; type: functional, cell-based; conditions: SK-MEL-28, 48 h
HepG2 = experiment: Cytotoxicity against human HepG2 cells assessed as inhibition of cell growth incubated for 48 hrs by MTT assay; type: functional, cell-based; conditions: HepG2, 48 h
A549 [1] = experiment: Cytotoxicity against human A549 cells assessed as inhibition of cell growth incubated for 48 hrs by MTT assay; type: functional, cell-based; conditions: A549, 48 h
HCT-116 = experiment: Cytotoxicity against human HCT-116 cells assessed as inhibition of cell growth incubated for 48 hrs by MTT assay; type: functional, cell-based; conditions: HCT-116, 48 h
[2] = Cytotoxicity against HEK293 cells assessed as inhibition of cell growth incubated for 48 hrs by MTT assay; type: toxicity, cell-based; conditions: human
MCF7 = experiment: Cytotoxicity against human MCF7 cells assessed as inhibition of cell growth incubated for 48 hrs by MTT assay; type: functional, cell-based; conditions: MCF7, 48 h
A549 [3] = experiment: Induction of apoptosis in human A549 cells assessed as necrotic cells at 9 uM by Annexin V-FITC/PI staining based flow cytometric analysis (reference value: 0.46 %); type: functional
A549 [4] = experiment: Induction of apoptosis in human A549 cells assessed as reduction in green intensity at 3 to 9 uM by acridine orange/EtBr staining based analysis; type: functional, cell-based; conditions: dose 3-9 µM
A549 [5] = experiment: Induction of apoptosis in human A549 cells assessed as necrotic cells at 3 uM by Annexin V-FITC/PI staining based flow cytometric analysis (reference value: 0.46 %); type: functional
A549 [6] = experiment: Induction of apoptosis in human A549 cells assessed as early apoptotic cells at 3 uM by Annexin V-FITC/PI staining based flow cytometric analysis (reference value: 0.32 %); type: functional
A549 [7] = experiment: Induction of apoptosis in human A549 cells assessed as reduction in Bcl-2 expression at 9 uM by PI staining based flow cytometric analysis relative to control; type: functional; parameters: scale not given: the % may be the effect or the level left
A549 [8] = experiment: Induction of ROS generation in human A549 cells assessed as fold change at 6 uM by DCFDA-H2 fluorescent dye based flow cytometric analysis relative to control; type: functional
A549 [9] = experiment: Cell cycle arrest in human A549 cells assessed as accumulation of cells at G2/M phase at 6 uM by PI staining based flow cytometric analysis (reference value: 11.5 %); type: functional
A549 [10] = experiment: Induction of DNA damage in human A549 cells assessed as decrease in green fluorescence at 3 to 9 uM by acridine orange/EtBr staining based analysis; type: functional, cell-based; conditions: dose 3-9 µM
A549 [11] = experiment: Induction of apoptosis in human A549 cells assessed as early apoptotic cells at 9 uM by Annexin V-FITC/PI staining based flow cytometric analysis (reference value: 0.32 %); type: functional
A549 [12] = experiment: Cell cycle arrest in human A549 cells assessed as accumulation of cells at G2/M phase at 3 uM by PI staining based flow cytometric analysis (reference value: 11.5 %); type: functional
A549 [13] = experiment: Induction of apoptosis in human A549 cells assessed as increase in necrotic cells by measuring red signals at 3 to 9 uM by acridine orange/EtBr staining based analysis; type: functional, cell-based; conditions: dose 3-9 µM
A549 [14] = experiment: Cell cycle arrest in human A549 cells assessed as accumulation of cells at G2/M phase at 9 uM by PI staining based flow cytometric analysis (reference value: 11.5 %); type: functional
A549 [15] = experiment: Induction of ROS generation in human A549 cells assessed as fold change at 9 uM by DCFDA-H2 fluorescent dye based flow cytometric analysis relative to control; type: functional
A549 [16] = experiment: Induction of DNA damage in human A549 cells assessed as DNA condensation by measuring increase in fluorescence intensity at 3 to 9 uM by DAPI staining based fluorescence microscopic analysis; type: functional, cell-based; conditions: dose 3-9 µM
A549 [17] = experiment: Induction of apoptosis in human A549 cells assessed as necrotic cells at 6 uM by Annexin V-FITC/PI staining based flow cytometric analysis (reference value: 0.46 %); type: functional
A549 [18] = experiment: Induction of apoptosis in human A549 cells assessed as reduction in Bcl-2 expression at 6 uM by PI staining based flow cytometric analysis relative to control; type: functional; parameters: scale not given: the % may be the effect or the level left
A549 [19] = experiment: Induction of apoptosis in human A549 cells assessed as early apoptotic cells at 6 uM by Annexin V-FITC/PI staining based flow cytometric analysis (reference value: 0.32 %); type: functional
A549 [20] = experiment: Induction of apoptosis in human A549 cells assessed as appearance of shrunken cells with fragmented nucleus at 3 to 9 uM by DAPI staining based fluorescence microscopic analysis; type: functional, cell-based; conditions: dose 3-9 µM
A549 [21] = experiment: Induction of apoptosis in human A549 cells assessed as late apoptotic cells at 9 uM by Annexin V-FITC/PI staining based flow cytometric analysis (reference value: 0.19 %); type: functional
A549 [22] = experiment: Induction of apoptosis in human A549 cells assessed as increase in late apoptotic cells by measuring orange red signals at 3 to 9 uM by acridine orange/EtBr staining based analysis; type: functional, cell-based; conditions: dose 3-9 µM
A549 [23] = experiment: Induction of apoptosis in human A549 cells assessed as late apoptotic cells at 6 uM by Annexin V-FITC/PI staining based flow cytometric analysis (reference value: 0.19 %); type: functional
A549 [24] = experiment: Induction of DNA damage in human A549 cells assessed as increase in red fluorescence at 3 to 9 uM by acridine orange/EtBr staining based analysis; type: functional, cell-based; conditions: dose 3-9 µM
A549 [25] = experiment: Induction of ROS generation in human A549 cells assessed as fold change at 3 uM by DCFDA-H2 fluorescent dye based flow cytometric analysis relative to control; type: functional
A549 [26] = experiment: Induction of apoptosis in human A549 cells assessed as reduction in Bcl-2 expression at 3 uM by PI staining based flow cytometric analysis relative to control; type: functional; parameters: scale not given: the % may be the effect or the level left
A549 [27] = experiment: Induction of apoptosis in human A549 cells assessed as increase in yellowish green intensity at 3 to 9 uM by acridine orange/EtBr staining based analysis; type: functional, cell-based; conditions: dose 3-9 µM
A549 [28] = experiment: Induction of apoptosis in human A549 cells assessed as late apoptotic cells at 3 uM by Annexin V-FITC/PI staining based flow cytometric analysis (reference value: 0.19 %); type: functional

With `N#Cc1ccc(C(=O)CN2C(=O)S/C(=C\c3coc4ccccc4c3=O)C2=O)cc1` as the molecule, how does the IC50 (SK-MEL-28) read?
Its IC50 is greater than 10 µM.

And the IC50 (HepG2)?
The IC50 was greater than 10 µM.

What about the IC50 (A549 [1]) of the same molecule?
Its IC50 is 8.8 µM.

What about the IC50 (HCT-116) of the same molecule?
Its IC50 is greater than 10 µM.

What about the IC50 at 48 h [2] of the same molecule?
Its IC50 at 48 h is 27.8 µM.

What about the IC50 (MCF7) of the same molecule?
Its IC50 is greater than 10 µM.

Which IC50 (SK-MEL-28) does the source give for `Cc1ccc(C(=O)CN2C(=O)S/C(=C\c3coc4ccc(C)cc4c3=O)C2=O)cc1` here?
The IC50 was greater than 10 µM.

What about the IC50 (HepG2) of the same molecule?
Its IC50 is greater than 10 µM.

What about the IC50 (A549 [1]) of the same molecule?
Its IC50 is 8.2 µM.

What about the IC50 (HCT-116) of the same molecule?
Its IC50 is greater than 10 µM.

And the IC50 at 48 h [2]?
The IC50 at 48 h was 14.1 µM.

And the IC50 (MCF7)?
Its IC50 is greater than 10 µM.

With `O=C(CN1C(=O)S/C(=C\c2coc3cc(F)ccc3c2=O)C1=O)c1ccc(Cl)cc1` as the molecule, how does the IC50 (SK-MEL-28) read?
The IC50 was greater than 10 µM.

And the IC50 (HepG2)?
Its IC50 is greater than 10 µM.

What about the IC50 (A549 [1]) of the same molecule?
The IC50 was greater than 10 µM.

What about the IC50 (HCT-116) of the same molecule?
The IC50 was greater than 10 µM.

And the IC50 at 48 h [2]?
The IC50 at 48 h was 13.4 µM.

What about the IC50 (MCF7) of the same molecule?
Its IC50 is greater than 10 µM.

For `O=C(CN1C(=O)S/C(=C\c2coc3ccccc3c2=O)C1=O)c1ccc(Br)cc1`, which IC50 (SK-MEL-28) is on record?
Its IC50 is greater than 10 µM.

What about the IC50 (HepG2) of the same molecule?
The IC50 was greater than 10 µM.

What about the IC50 (A549 [1]) of the same molecule?
Its IC50 is 7.8 µM.

And the IC50 (HCT-116)?
Its IC50 is greater than 10 µM.

And the IC50 at 48 h [2]?
The IC50 at 48 h was 21.1 µM.

And the IC50 (MCF7)?
The IC50 was greater than 10 µM.

Which results are given for `COc1ccc(C(=O)CN2C(=O)S/C(=C\c3coc4cc(Br)ccc4c3=O)C2=O)cc1`?
IC50 (SK-MEL-28): > 10 µM; Activity (A549 [3]): 0.29%; Activity (A549 [4]): Active; Activity (A549 [5]): 0.27%; Activity (A549 [6]): 1.94%; Activity (A549 [7]): 79.1%; fold change (FC) (A549 [8]): 1.4; Activity (A549 [9]): 18.4%; Activity (A549 [10]): Active; Activity (A549 [11]): 10.9%; IC50 (HepG2): > 10 µM; Activity (A549 [12]): 18.08%; Activity (A549 [13]): Active; Activity (A549 [14]): 21.6%; fold change (FC) (A549 [15]): 8.9; Activity (A549 [16]): Active; IC50 (A549 [1]): 6.1 µM; Activity (A549 [17]): 0.3%; Activity (A549 [18]): 38.2%; Activity (A549 [19]): 3.1%; Activity (A549 [20]): Active; Activity (A549 [21]): 6.6%; IC50 (HCT-116): > 10 µM; Activity (A549 [22]): Active; Activity (A549 [23]): 2.2%; Activity (A549 [24]): Active; fold change (FC) (A549 [25]): 1.07; Activity (A549 [26]): 31.7%; Activity (A549 [27]): Active; Activity (A549 [28]): 0.98%; IC50 at 48 h [2]: 14.1 µM; IC50 (MCF7): 8.9 µM

For `O=C(CN1C(=O)S/C(=C\c2coc3cc(Br)ccc3c2=O)C1=O)c1ccc(Br)cc1`, which IC50 (SK-MEL-28) is on record?
The IC50 was greater than 10 µM.

And the IC50 (HepG2)?
Its IC50 is greater than 10 µM.

What about the IC50 (A549 [1]) of the same molecule?
The IC50 was greater than 10 µM.

And the IC50 (HCT-116)?
The IC50 was greater than 10 µM.

What about the IC50 at 48 h [2] of the same molecule?
Its IC50 at 48 h is 23.6 µM.

And the IC50 (MCF7)?
The IC50 was greater than 10 µM.

With `O=C(CN1C(=O)S/C(=C\c2coc3ccccc3c2=O)C1=O)c1ccc(Cl)cc1` as the molecule, how does the IC50 (SK-MEL-28) read?
Its IC50 is greater than 10 µM.

What about the IC50 (HepG2) of the same molecule?
The IC50 was 12.3 µM.

What about the IC50 (A549 [1]) of the same molecule?
The IC50 was greater than 10 µM.

What about the IC50 (HCT-116) of the same molecule?
The IC50 was greater than 10 µM.

What about the IC50 at 48 h [2] of the same molecule?
Its IC50 at 48 h is 25 µM.

What about the IC50 (MCF7) of the same molecule?
The IC50 was 8.7 µM.

What does the source list for `O=C(CN1C(=O)S/C(=C\c2coc3cc(Br)ccc3c2=O)C1=O)c1ccccc1`?
IC50 (SK-MEL-28): > 10 µM; IC50 (HepG2): > 10 µM; IC50 (A549 [1]): 8.8 µM; IC50 (HCT-116): > 10 µM; IC50 at 48 h [2]: 21.1 µM; IC50 (MCF7): > 10 µM

Which results are given for `Cc1ccc(C(=O)CN2C(=O)S/C(=C\c3coc4ccccc4c3=O)C2=O)cc1`?
IC50 (SK-MEL-28): > 10 µM; IC50 (HepG2): > 10 µM; IC50 (A549 [1]): 8.7 µM; IC50 (HCT-116): > 10 µM; IC50 at 48 h [2]: 28.2 µM; IC50 (MCF7): > 10 µM

For `O=C(CN1C(=O)S/C(=C\c2coc3ccccc3c2=O)C1=O)c1ccccc1`, which IC50 (SK-MEL-28) is on record?
Its IC50 is greater than 10 µM.

And the IC50 (HepG2)?
The IC50 was greater than 10 µM.

And the IC50 (A549 [1])?
The IC50 was greater than 10 µM.

And the IC50 (HCT-116)?
Its IC50 is greater than 10 µM.

What about the IC50 at 48 h [2] of the same molecule?
Its IC50 at 48 h is 17.5 µM.

And the IC50 (MCF7)?
The IC50 was greater than 10 µM.
